Assays:
[1] = pharmacokinetic profile of 5MPN after IV and oral administration; format: in vivo; conditions: C57BL/6 mice
Procedure: In vivo Studies. The pharmacokinetic profile was determined in female C57BL/6 mice following IV and oral administration of 5MPN. Using only female mice lowered the animal numbers required for meaningful results without issues of potential gender differences in exposure. Eight time points (n=3/time point) were used to determine PK parameters calculated using WinNonLin v5.0. Plasma samples were extracted using acetonitrile and analyzed by LC/MS-MS using a PhenomexSynergi Polar-RP 4 micron 50×2.0 mm column eluted with a biphasic mobile phase (0.5% formic acid in acetonitrile and water).

[2] = tested on: panel of 97 protein kinases; assay: KINOMEscan active-site dependent competition binding assay; conditions: 10 μM; data not shown
Procedure: Kinase assays: The fructose-6-phosphate kinase activity of human recombinant PFKFB4 in the presence of DMSO±indicated 5MPN concentrations was assayed as previously described. The activity of 5MPN against 97 kinases was examined using a commercially available active-site dependent competition binding assay core service (KINOMEscanEDGE) that quantifies the capacity of lest agents to compete with an immobilized, active-site directed ligand using a DNA-tagged kinase and immobilized ligand and compound. For example, enzyme inhibition was studies using a ADP-Glo assay. […] ADP is converted into ATP, which is converted into light by a luciferase.

H460 cells [3] = assay: proliferation / viable cell count (trypan blue) of H460 cells; format: cell-based, human
Procedure: Cell Viability: Cells were incubated in 20% trypan blue (Sigma) for 5 minutes. Cells excluding trypan blue were counted using a standard hemocytometer (Hausser Scientific) to determine total numbers of viable cells. Data are expressed as mean±SD of three experiments. Proliferation Assays: H460 non-small cell lung cancer cells were plated in 24 well plates and exposed to increasing concentrations of the indicated inhibitors of Formula IV (FBR1-02 corresponds to [drawing 47] DMSO was used as vehicle. After 24, 48 and 72 hours of exposure, cells were detached and viable cells were counted by Trypan blue exclusion (representative counts at 48 hours shown).

H460 cells [4] = assay: ATP measurements in H460 cells; format: cell-based, human; conditions: H460, 10 μM 5MPN, 6-72 hours
Procedure: Cells were lysed and intracellular ATP determined as described previously. For example, cells were washed (while still adherent) with cold PBS 1×, lysed with Passive Lysis Buffer (1×; Molecular Probes, Invitrogen) added directly to the plates, and immediately harvested by scraping. The lysates were flash frozen (to −80° C.) and thawed (to 37° C.) once to accomplish complete lysis and then centrifuged (at 4° C.) for 30 seconds to clear the lysates. Intracellular ATP levels were determined using a bioluminescence assay (Molecular Probes), utilizing recombinant firefly luciferase and its substrate, D-luciferin. The luminescence was read in a TD-20/20 luminometer (Turner Designs) at 560 nm. The ATP values were calculated using an ATP standard curve. The protein concentrations of the lysates were estimated using the BCA assay (Pierce Biotechnology) and ATP was expressed as pmol/μg protein. All data are expressed as the mean±SD of three experiments. Statistical significance was assessed by the two-sample t test (independent variable).

[5] = tested on: PFKFB4−/− lung fibroblasts; assay: cell counts of tamoxifen-inducible PFKFB4-/- lung fibroblasts; format: cell-based, mice; conditions: 4HT-induced deletion, 10 μM 5MPN, 24 hours
Source text: Cell lines and cell culture: H460, H1299, H441, H522 and A549 non-small cell lung cancer (NSCLC), MDA-MB-231 (breast), LNCaP (prostatic) and HCT116 (colon) adenocarcinoma and Lewis lung carcinoma (LLC) cell lines were obtained from ATCC and used within 6 months of acquisition, PFKFB4^7 ear pinna Fibroblasts isolated from TamCre/loxP/PFKFB4^−/− mice were immortalized as described previously (Chesney J et al. Fructose-2,6-bisphosphate synthesis by 6-phosphofructo-2-kinase/fructose-2,6-bisphosphatase 4 (PFKFB4) is required for the glycolytic response to hypoxia and tumor growth. Oncotarget 2014 Aug. 30; 5(16):6670-86). Normal bronchial epithelial cells (NHBE) were obtained from Lonza and NHBE cells expressing telomerase, SV40 large T antigen and activated Ras (hT/LT/Ras) were a gift from Dr. B. J. Rollins, Dana Farber Cancer Institute. All cell lines were tested and found negative for mycoplasma (PCR Mycoplasma Detection Kit, ABM). […]
(§1) Cell Viability: Cells were incubated in 20% trypan blue (Sigma) for 5 minutes. Cells excluding trypan blue were counted using a standard hemocytometer (Hausser Scientific) to determine total numbers of viable cells. Data are expressed as mean±SD of three experiments.

LNCaP = assay: viable cell count of LNCaP cells; format: cell-based; conditions: 48 hours
Procedure: as §1

LLC cells = assay: in vitro cell cycle analysis of LLC cells; format: cell-based; conditions: 10 μM 5MPN
Procedure: Flow Cytometry: To measure apoptosis, cells were stained with annexin V and propidium iodide and examined as previously described. […] DMSO used as vehicle. For cell cycle experiments, cells were detached, washed with cold PBS and fixed in 70% ethanol (4° C. 30 minutes). The cells then were pelleted by centrifugation, resuspended in PBS containing PI and RNase A, incubated at 37° C. in the dark for 30 minutes and analyzed by flow cytometry (BD FACSCalibur). Data were analyzed using FlowJo software (TREE STAR Inc.). Results were calculated as the mean±SD of three experiments.

[6] = tested on: H460 human lung adenocarcinoma xenografts; assay: H460 xenograft tumor growth in athymic mice; format: in vivo, BALB/c athymic mice; conditions: 120 mg/kg oral daily
HCT116 = assay: viable cell count of HCT116 cells; format: cell-based; conditions: HCT116, 48 hours
Procedure: as §1

SMILES: COc1cccc2c(NCCCCCO[N+](=O)[O-])ccnc12 [5MPN, 5-[(8-methoxyquinolin-4-yl)amino]pentyl nitrate]
- oral bioavailability [1]: High Oral Bioavailability
- pharmacokinetics of intravenous and oral administration ([1]; IV and oral): both routes were adequate to achieve potentially therapeutic concentrations
- inhibition of a panel of 97 protein kinases [2]: not inhibited
- cell proliferation (H460 cells [3]; H460, 24-72 hours): reduction in cell proliferation
- growth, viable cells (H460 cells [3]; H460, 48 hours): dose-dependent reduction in growth
- anti-proliferative effect with over-expression of PFKFB4 (H460 cells [3]; H460 transfected with PFKFB4, 10 μM 5MPN, 24 hours): protected
- ATP (H460 cells [4]): reduced
- anti-proliferative effect with genomic deletion of Pfkfb4 [5]: sensitized
- growth, viable cells (LNCaP): dose-dependent reduction in growth
- cell cycle arrest in LLC cells in vitro (LLC cells): G1 arrest
- body weight ([6]; H460-bearing athymic mice): without affecting body weight
- tumor growth of H460 xenografts ([6]; athymic mice): suppressed the growth
- growth, viable cells (HCT116): dose-dependent reduction in growth
